Source: patent publication US11365204B2, “Substituted dihydrothienopyrimidines and their use as phosphodiesterase inhibitors” (UNION therapeutics A/S, priority 2017, dated 2022)

Tests used:
[1] = target: human PDE4D catalytic domain (UniProt no. Q08499 [S380-L740]) (Homo sapiens (Human), UniProt Q08499); assay: PDE4 assay (TR-FRET, cAMP hydrolysis); type: biochemical; conditions: read-out: PDE4 IC50 range
Experimental: The human PDE4D catalytic domain (UniProt no. Q08499 [S380-L740]) was incubated with a mixture of non-labelled cAMP (cyclic adenosine monophosphate) and fluorescein amidite (FAM) conjugated cAMP and titrated test or reference compound.
Following brief incubation the enzymatic reaction was stopped by addition of binding buffer containing nanoparticles with immobilized trivalent metal ions capable of binding 1) AMP phospho groups and 2) terbium (Tb) donor fluorophores. Subsequent excitation of the Tb donor triggered time-resolved FRET to adjacent FAM acceptor molecules resulting in light emission. In the presence of a PDE4 inhibitor, AMP generation was reduced resulting in a lower fluorescence signal. The cAMP phosphodiester is not bound by the detection system.
Results were expressed as IC50 values (nM) calculated from inhibition curves where the TR-FRET signal was normalized to Tb fluorescence intensity and the negative (DMSO vehicle) and positive (10 microM a PDE4 inhibitor reference compound) controls.

[2] = tested on: Human peripheral blood mononuclear cells (PBMC); assay: TNF-α release from LPS-stimulated PBMC; type: cell-based; conditions: Lipopolysaccharide 1 microg/ml, 18 hours, AlphaLISA, read-out: TNF-α IC50 range
Experimental: Human peripheral blood mononuclear cells (PBMC) were isolated from fresh buffy coats by density centrifugation using lymphoprep tubes (Medinor). Frozen PBMC's were washed in serum free assay buffer (RPMI1640 with 25 mM HEPES, 1% pen/strep, […] L glutamine, 0.5% human serum albumin) and living cells counted. Lipopolysaccharide (1 microg/ml; SIGMA) was added to the cells which were then transferred to 384 well tissue culture plates ([…]) containing titrated test compounds. The cells were incubated for 18 hours at 37° C. in serum free assay buffer and the level of TNFalpha in the supernatant was quantitated by AlphaLISA (PerkinElmer) by measuring fluorescence intensity at 615 nm.
Results were expressed as IC50 values calculated from inhibition curves using as controls the secretion in LPS stimulated wells and the secretion in cells incubated with 10 microM of a PDE4 inhibitor reference compound.

Chain of human PDE4D catalytic domain (Q08499 380-740): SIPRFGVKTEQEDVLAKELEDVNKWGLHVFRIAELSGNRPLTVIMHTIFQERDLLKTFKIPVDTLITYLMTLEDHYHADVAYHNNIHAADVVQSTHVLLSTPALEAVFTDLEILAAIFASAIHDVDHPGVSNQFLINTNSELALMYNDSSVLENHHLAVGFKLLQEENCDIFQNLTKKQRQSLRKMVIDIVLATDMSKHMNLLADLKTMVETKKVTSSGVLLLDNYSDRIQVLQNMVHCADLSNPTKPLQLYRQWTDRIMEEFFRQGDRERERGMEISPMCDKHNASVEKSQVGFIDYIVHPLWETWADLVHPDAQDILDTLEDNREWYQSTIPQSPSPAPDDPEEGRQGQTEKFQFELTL

Row | SMILES | IC50 [1] [µM] | IC50 [2] [µM]
1 | CN(c1nc(N2CC(OC(=O)c3cn(C)cn3)C2)nc2c1[S+]([O-])CC2)C1CCOCC1 (stereo not drawn) [Example 19, [1-[4-[methyl(tetra-hydropyran-4-yl)amino]-5-oxido-6,7-dihydro-thieno[3,2-d]pyrimidin-5-ium-2-yl]azetidin-3-yl] 1-methylimidazole-4-carboxylate] | < 0.1 | < 0.1
2 | Cc1ccc(C(=O)OC2CN(c3nc4c(c(N(C)C5CCOCC5)n3)[S@+](O)CC4)C2)cc1 [Example 64, [1-[(5R)-4-[methyl-(tetrahydropyran-4-yl)amino]-5-oxido-6,7-dihydrothieno[3,2-d]pyrimidin-5-ium-2-yl]azetidin-3-yl] 4-methylbenzoate] | < 0.1 | < 0.1
3 | O=C(OC1CN(c2nc3c(c(NC4CCOCC4)n2)[S@@+]([O-])CC3)C1)C1CCCC1 [Example 11, [1-[(5R)-5-oxido-4-(tetrahydropyran-4-ylamino)-6,7-dihydro-thieno[3,2-d]pyrimidin-5-ium-2-yl]azetidin-3-yl] cyclopentanecarboxylate] | < 0.1 | < 0.1
4 | CCCN(c1nc(N2CC(OC(=O)c3cscn3)C2)nc2c1[S+]([O-])CC2)C1CCOCC1 (stereo not drawn) [Example 10, [1-[4-[Propyl(tetrahydropyran-4-yl)amino]-5-oxido-6,7-dihydrothieno[3,2-d]pyrimidin-5-ium-2-yl]azetidin-3-yl] thiazole-4-carboxylate] | > 0.5 | > 0.5
5 | O=C(OC1CN(c2nc3c(c(NC4CC5(COC5)C4)n2)[S+]([O-])CC3)C1)c1cnsc1 (racemic) [Example 65, [1-[4-(6-oxaspiro[3.3]-heptan-2-ylamino)-5-oxido-6,7-dihydrothieno-[3,2-d]pyrimidin-5-ium-2-yl]azetidin-3-yl] isothia-zole-4-carboxylate] | < 0.1 | < 0.1
6 | CN(C)C(=O)c1ccc(C(=O)OC2CN(c3nc4c(c(N(C)C5CCOCC5)n3)[S+](O)CC4)C2)cc1 (stereo not drawn) [Example 53, [1-[4-[methyl(tetra-hydropyran-4-yl)amino]-5-oxido-6,7-dihydro-thieno[3,2-d]pyrimidin-5-ium-2-yl]azetidin-3-yl] 4-(dimethylcarbamoyl)-benzoate] | < 0.1 | < 0.1
7 | CCN(c1nc(N2CC(OC(=O)c3cscn3)C2)nc2c1[S+]([O-])CC2)C1CCOCC1 (stereo not drawn) [Example 8, [1-[4-[Ethyl(tetrahydropyran-4-yl)amino]-5-oxido-6,7-dihydrothieno[3,2-d]pyrimidin-5-ium-2-yl]azetidin-3-yl] thiazole-4-carboxylate] | 0.1 to 0.5 | 0.1 to 0.5
8 | CN(c1nc(N2CC(OC(=O)c3ccc(S(C)(=O)=O)cc3)C2)nc2c1[S+](O)CC2)C1CCOCC1 (stereo not drawn) [Example 54, [1-[4-[methyl(tetra-hydropyran-4-yl)amino]-5-oxido-6,7-dihydro-thieno[3,2-d]pyrimidin-5-ium-2-yl]azetidin-3-yl] 4-methylsulfonyl-benzoate] | < 0.1 | < 0.1
9 | O=C(OC1CN(c2nc3c(c(NC4CCOCC4)n2)[S@@+]([O-])CC3)C1)C1CCOCC1 [Example 12, [1-[(5R)-5-oxido-4-(tetrahydropyran-4-ylamino)-6,7-dihydrothieno[3,2-d]pyrimidin-5-ium-2-yl]azetidin-3-yl] tetrahydropyran-4-carboxylate] | 0.1 to 0.5 | < 0.1
10 | Cc1ccc(C(=O)OC2CN(c3nc4c(c(N(C)C5CCOCC5)n3)[S+]([O-])CC4)C2)cc1 (stereo not drawn) [Example 26, [1-[4-[methyl(tetra-hydropyran-4-yl)amino]-5-oxido-6,7-dihydro-thieno[3,2-d]pyrimidin-5-ium-2-yl]azetidin-3-yl] 4-methylbenzoate] | < 0.1 | < 0.1
11 | O=C(OC1CN(c2nc3c(c(NC4CC5(COC5)C4)n2)[S+]([O-])CC3)C1)c1cnsc1 (stereo in doubt) [Example 68, [1-[(5R)-4-(6-oxaspiro-[3.3]heptan-2-ylamino)-5-oxido-6,7-dihydrothieno-[3,2-d]pyrimidin-5-ium-2-yl]azetidin-3-yl] isothia-zole-4-carboxylate] | < 0.1 | < 0.1
12 | Cc1ncc(C(=O)OC2CN(c3nc4c(c(N(C)C5CCOCC5)n3)[S+]([O-])CC4)C2)o1 (stereo not drawn) [Example 21, [1-[4-[methyl(tetra-hydropyran-4-yl)amino]-5-oxido-6,7-dihydro-thieno[3,2-d]pyrimidin-5-ium-2-yl]azetidin-3-yl] 2-methyloxazole-5-carboxylate] | < 0.1 | < 0.1
13 | CNC(=O)c1ccc(C(=O)OC2CN(c3nc4c(c(N(C)C5CCOCC5)n3)[S+](O)CC4)C2)cc1 (stereo not drawn) [Example 51, [1-[4-[methyl(tetra-hydropyran-4-yl)amino]-5-oxido-6,7-dihydro-thieno[3,2-d]pyrimidin-5-ium-2-yl]azetidin-3-yl] 4-(methylcarbamoyl)-benzoate] | < 0.1 | < 0.1
14 | CN(c1nc(N2CC(OC(=O)c3ccn(C)n3)C2)nc2c1[S+]([O-])CC2)C1CCOCC1 (stereo not drawn) [Example 17, [1-[4-[methyl(tetra-hydropyran-4-yl)amino]-5-oxido-6,7-dihydro-thieno[3,2-d]pyrimidin-5-ium-2-yl]azetidin-3-yl] 1-methylpyrazole-3-carboxylate] | < 0.1 | < 0.1
15 | Cc1cc(C(=O)OC2CN(c3nc4c(c(N(C)C5CCOCC5)n3)[S+](O)CC4)C2)cc(C)n1 (stereo not drawn) [Example 41, [1-[4-[methyl(tetra-hydropyran-4-yl)amino]-5-oxido-6,7-dihydro-thieno[3,2-d]pyrimidin-5-ium-2-yl]azetidin-3-yl] 2,6-dimethylpyridine-4-carboxylate] | < 0.1 | < 0.1
16 | O=C(OC1CN(c2nc3c(c(NC4CC5(COC5)C4)n2)[S@@+]([O-])CC3)C1)c1cscn1 (single isomer, unassigned) [Example 70] | < 0.1 | < 0.1
17 | CN(c1nc(N2CC(OC(=O)c3cnsc3)C2)nc2c1[S+]([O-])CC2)C1CCOCC1 (stereo in doubt) [Example 4, [1-[(5R)-4-[Methyl(tetrahydropyran-4-yl)amino]-5-oxido-6,7-dihydrothieno[3,2-d]pyrimidin-5-ium-2-yl]azetidin-3-yl] isothiazole-4-carboxylate] | < 0.1 | < 0.1
18 | CC(=O)c1cccc(C(=O)OC2CN(c3nc4c(c(N(C)C5CCOCC5)n3)[S+](O)CC4)C2)c1 (stereo not drawn) [Example 47, [1-[4-[methyl(tetra-hydropyran-4-yl)amino]-5-oxido-6,7-dihydro-thieno[3,2-d]pyrimidin-5-ium-2-yl]azetidin-3-yl] 3-acetylbenzoate] | < 0.1 | < 0.1
19 | CN(c1nc(N2CC(OC(=O)c3cscn3)C2)nc2c1[S+]([O-])CC2)C1CCOCC1 (stereo in doubt) [Example 6, [1-[(5R)-4-[Methyl(tetrahydropyran-4-yl)amino]-5-oxido-6,7-dihydrothieno[3,2-d]pyrimidin-5-ium-2-yl]azetidin-3-yl] thiazole-4-carboxylate] | < 0.1 | < 0.1
20 | O=C(OC1CN(c2nc3c(c(NC4CCOCC4)n2)[S@@+]([O-])CC3)C1)c1cscn1 [Example 2, [1-[(5R)-5-Oxido-4-(tetrahydropyran-4-ylamino)-6,7-dihydrothieno[3,2-d]pyrimidin-5-ium-2-yl]azetidin-3-yl] thiazole-4-carboxylate] | < 0.1 | < 0.1
21 | CN(c1nc(N2CC(OC(=O)C3CC(O)C3)C2)nc2c1[S+]([O-])CC2)C1CCOCC1 (stereo not drawn) [Example 14, [1-[4-[methyl(tetra-hydropyran-4-yl)amino]-5-oxido-6,7-dihydro-thieno[3,2-d]pyrimidin-5-ium-2-yl]azetidin-3-yl] 3-hydroxycyclobutane-carboxylate] | 0.1 to 0.5 | 0.1 to 0.5
22 | CN(c1nc(N2CC(OC(=O)c3cscn3)C2)nc2c1[S+]([O-])CC2)C1CCOCC1 (stereo not drawn) [Example 5, [1-[4-[Methyl(tetrahydropyran-4-yl)amino]-5-oxido-6,7-dihydrothieno[3,2-d]pyrimidin-5-ium-2-yl]azetidin-3-yl] thiazole-4-carboxylate] | < 0.1 | < 0.1
23 | CN(c1nc(N2CC(OC(=O)c3ccc(F)cc3)C2)nc2c1[S+]([O-])CC2)C1CCOCC1 (stereo not drawn) [Example 28, [1-[4-[methyl(tetra-hydropyran-4-yl)amino]-5-oxido-6,7-dihydro-thieno[3,2-d]pyrimidin-5-ium-2-yl]azetidin-3-yl] 4-fluorobenzoate] | < 0.1 | < 0.1
24 | CC(=O)c1ccc(C(=O)OC2CN(c3nc4c(c(N(C)C5CCOCC5)n3)[S+](O)CC4)C2)cc1 (stereo not drawn) [Example 48, [1-[4-[methyl(tetra-hydropyran-4-yl)amino]-5-oxido-6,7-dihydro-thieno[3,2-d]pyrimidin-5-ium-2-yl]azetidin-3-yl] 4-acetylbenzoate] | < 0.1 | < 0.1
